Data from US6914045B2, “Glycopeptide antibiotics” (Wyeth Holdings Corporation, priority 2001, dated 2005).

How the values were obtained:
Assay in all cases: in vitro antibacterial evaluation, MIC by broth dilution
Assay type in all cases: cell-based
Escherichia coli = conditions: 18 hours at 35° C.
Enterococcus sp. = conditions: broth dilution, 18 hours at 35° C.
Procedure, shortened: (§1)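 Broth dilution per NCCLS standard M7-A2 in Muller-Hinton II […], with an inoculum of 5×10^5 CFU/mL and antibiotic spanning 64-0.06 μg/mL. The MIC is the lowest concentration that inhibits growth of the organism.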

Staphylococcus sp. = conditions: broth dilution, 18 hours at 35° C.; for MIC Staphylococcus aureus (GC 1131): strain GC 1131; for MIC Staphylococcus aureus (ATCC 29213): strain ATCC 29213; for MIC Staphylococcus aureus (GC 3051): strain GC 3051; for MIC Staphylococcus aureus (GC 3053): strain GC 3053; for MIC Staphylococcus aureus (GC 4541): strain GC 4541; for MIC Staphylococcus aureus (GC 4542): strain GC 4542; for MIC Staphylococcus aureus-SMITH (GC 4543): strain GC 4543; for MIC Staphylococcus aureus (GC 4544): strain GC 4544; for MIC Staphylococcus aureus (GC 4545): strain GC 4545; for MIC Staphylococcus haemolyticus (GC 4546): strain GC 4546; for MIC Coagulase Negative Staphylococcus (GC 4547): strain GC 4547; for MIC Coagulase Negative Staphylococcus (GC 4548): strain GC 4548; for MIC Coagulase Negative Staphylococcus (GC 4549): strain GC 4549; for MIC Coagulase Negative Staphylococcus (GC 4551): strain GC 4551; for MIC Coagulase Negative Staphylococcus (GC 6257): strain GC 6257
Procedure, shortened: as §1

Streptococcus sp. = conditions: broth dilution, 18 hours at 35° C.
Procedure, shortened: as §1

[1] = inoculum 5×10^5 CFU/mL, strain ATCC 29212
[2] = inoculum 5×10^5 CFU/mL, strain GC 2242
[3] = inoculum 5×10^5 CFU/mL, strain GC 2243
[4] = inoculum 5×10^5 CFU/mL, strain GC 2691
[5] = inoculum 5×10^5 CFU/mL, strain GC 3059
[6] = inoculum 5×10^5 CFU/mL, strain GC 4552
[7] = inoculum 5×10^5 CFU/mL, strain GC 4553
[8] = inoculum 5×10^5 CFU/mL, strain GC 4554
[9] = inoculum 5×10^5 CFU/mL, strain GC 4556
[10] = inoculum 5×10^5 CFU/mL, strain GC 4557
[11] = inoculum 5×10^5 CFU/mL, strain GC 4558
[12] = inoculum 5×10^5 CFU/mL, strain GC 6189
[13] = inoculum 5×10^5 CFU/mL, strain ATCC 6301
[14] = inoculum 5×10^5 CFU/mL, strain GC 1894
[15] = inoculum 5×10^5 CFU/mL, strain GC 4563
[16] = inoculum 5×10^5 CFU/mL, strain GC 4564
[17] = inoculum 5×10^5 CFU/mL, strain GC 4565

CC(c1ccc(Cl)cc1)C1NC(=O)CNC(=O)C(CO)NC(=O)C(C(O)C2CNC(=N)N2C2OC(CO)C(O)C(O)C2O)NC(=O)C(C(O)C2CNC(=N)N2)NC(=O)C(Cc2ccc(OC3OC(CO)C(OC4OC5COC(c6ccccc6)OC5C(O)C4O)C(O)C3O)cc2)NC1=O (stereo not shown) [Example 195]
1 µg/mL: MIC Coagulase Negative Staphylococcus (GC 4549) (Staphylococcus sp.)
0.12 µg/mL: MIC Streptococcus pneumoniae (ATCC 6301) (Streptococcus sp.) | MIC Streptococcus pneumoniae (GC 1894) (Streptococcus sp.) | MIC Streptococcus pneumoniae (GC 4565) (Streptococcus sp.) | MIC Streptococcus pyogenes (GC 4563) (Streptococcus sp.) | MIC Streptococcus pneumoniae (ATCC 6301) (Streptococcus sp.; [13]) | MIC Streptococcus pneumoniae (GC 1894) (Streptococcus sp.; [14]) | MIC Streptococcus pyogenes (GC 4563) (Streptococcus sp.; [15]) | MIC Streptococcus pneumoniae (GC 4565) (Streptococcus sp.; [17])
>0.5 µg/mL: MIC Escherichia coli (ATCC 25922) (Escherichia coli) | MIC Escherichia coli (GC 4559) (Escherichia coli)
2 µg/mL: MIC Staphylococcus haemolyticus (GC 4546) (Staphylococcus sp.) | MIC Coagulase Negative Staphylococcus (GC 4548) (Staphylococcus sp.) | MIC Coagulase Negative Staphylococcus (GC 6257) (Staphylococcus sp.)
0.5 µg/mL: MIC Escherichia coli (GC 4560) (Escherichia coli) | MIC Enterococcus avium (GC 4558) (Enterococcus sp.) | MIC Enterococcus faecalis (ATCC 29212) (Enterococcus sp.) | MIC Enterococcus faecalis (GC 2242) (Enterococcus sp.) | MIC Enterococcus faecalis (GC 2691) (Enterococcus sp.) | MIC Enterococcus faecalis (GC 3059) (Enterococcus sp.) | MIC Enterococcus faecalis (GC 4552) (Enterococcus sp.) | MIC Enterococcus faecalis (GC 4553) (Enterococcus sp.) | MIC Enterococcus faecalis (GC 4554) (Enterococcus sp.) | MIC Enterococcus faecalis (GC 6189) (Enterococcus sp.) | MIC Enterococcus faecium (GC 2243) (Enterococcus sp.) | MIC Enterococcus faecium (GC 4556) (Enterococcus sp.) | MIC Enterococcus faecium (GC 4557) (Enterococcus sp.) | MIC Enterococcus faecalis (ATCC 29212) (Enterococcus sp.; [1]) | MIC Enterococcus faecalis (GC 2242) (Enterococcus sp.; [2]) | MIC Enterococcus faecium (GC 2243) (Enterococcus sp.; [3]) | MIC Enterococcus faecalis (GC 2691) (Enterococcus sp.; [4]) | MIC Enterococcus faecalis (GC 3059) (Enterococcus sp.; [5]) | MIC Enterococcus faecalis (GC 4552) (Enterococcus sp.; [6]) | MIC Enterococcus faecalis (GC 4553) (Enterococcus sp.; [7]) | MIC Enterococcus faecalis (GC 4554) (Enterococcus sp.; [8]) | MIC Enterococcus faecium (GC 4556) (Enterococcus sp.; [9]) | MIC Enterococcus faecium (GC 4557) (Enterococcus sp.; [10]) | MIC Enterococcus avium (GC 4558) (Enterococcus sp.; [11]) | MIC Enterococcus faecalis (GC 6189) (Enterococcus sp.; [12]) | MIC Staphylococcus aureus (GC 1131) (Staphylococcus sp.; inoculum 5×10^5 CFU/mL) | MIC Staphylococcus aureus (ATCC 29213) (Staphylococcus sp.) | MIC Staphylococcus aureus (GC 1131) (Staphylococcus sp.) | MIC Staphylococcus aureus (GC 3051) (Staphylococcus sp.) | MIC Staphylococcus aureus (GC 3053) (Staphylococcus sp.) | MIC Staphylococcus aureus (GC 4541) (Staphylococcus sp.) | MIC Staphylococcus aureus (GC 4542) (Staphylococcus sp.) | MIC Staphylococcus aureus-SMITH (GC 4543) (Staphylococcus sp.) | MIC Staphylococcus aureus (GC 4544) (Staphylococcus sp.) | MIC Staphylococcus aureus (GC 4545) (Staphylococcus sp.) | MIC Streptococcus agalactiae (GC 4564) (Streptococcus sp.) | MIC Streptococcus agalactiae (GC 4564) (Streptococcus sp.; [16])
4 µg/mL: MIC Coagulase Negative Staphylococcus (GC 4547) (Staphylococcus sp.) | MIC Coagulase Negative Staphylococcus (GC 4551) (Staphylococcus sp.)

CC(c1ccccc1)C1NC(=O)CNC(=O)C(CO)NC(=O)C(C(O)C2CNC(=N)N2C2OC(CO)C(O)C(O)C2O)NC(=O)C(C(O)C2CNC(=N)N2)NC(=O)C(Cc2ccc(OC3OC(CO)C(OC4OC5COC(c6ccccc6)OC5C(O)C4O)C(O)C3O)c(I)c2)NC1=O (stereo not shown) [Example 196]
>64 µg/mL: MIC Enterococcus faecalis (ATCC 29212) (Enterococcus sp.) | MIC Enterococcus faecalis (GC 2242) (Enterococcus sp.) | MIC Enterococcus faecalis (GC 2691) (Enterococcus sp.) | MIC Enterococcus faecalis (GC 3059) (Enterococcus sp.) | MIC Enterococcus faecalis (GC 4552) (Enterococcus sp.) | MIC Enterococcus faecalis (GC 4554) (Enterococcus sp.) | MIC Enterococcus faecalis (GC 6189) (Enterococcus sp.) | MIC Enterococcus faecium (GC 4556) (Enterococcus sp.) | MIC Enterococcus faecalis (ATCC 29212) (Enterococcus sp.; [1]) | MIC Enterococcus faecalis (GC 2242) (Enterococcus sp.; [2]) | MIC Enterococcus faecalis (GC 2691) (Enterococcus sp.; [4]) | MIC Enterococcus faecalis (GC 3059) (Enterococcus sp.; [5]) | MIC Enterococcus faecalis (GC 4552) (Enterococcus sp.; [6]) | MIC Enterococcus faecalis (GC 4554) (Enterococcus sp.; [8]) | MIC Enterococcus faecium (GC 4556) (Enterococcus sp.; [9]) | MIC Enterococcus faecalis (GC 6189) (Enterococcus sp.; [12]) | MIC Staphylococcus aureus (GC 1131) (Staphylococcus sp.; inoculum 5×10^5 CFU/mL) | MIC Staphylococcus aureus (ATCC 29213) (Staphylococcus sp.) | MIC Staphylococcus aureus (GC 1131) (Staphylococcus sp.) | MIC Staphylococcus aureus (GC 3051) (Staphylococcus sp.) | MIC Staphylococcus aureus (GC 3053) (Staphylococcus sp.) | MIC Staphylococcus aureus (GC 4542) (Staphylococcus sp.) | MIC Staphylococcus aureus-SMITH (GC 4543) (Staphylococcus sp.) | MIC Staphylococcus aureus (GC 4544) (Staphylococcus sp.) | MIC Coagulase Negative Staphylococcus (GC 4551) (Staphylococcus sp.) | MIC Streptococcus agalactiae (GC 4564) (Streptococcus sp.) | MIC Streptococcus agalactiae (GC 4564) (Streptococcus sp.; [16])
64 µg/mL: MIC Escherichia coli (ATCC 25922) (Escherichia coli) | MIC Escherichia coli (GC 4559) (Escherichia coli) | MIC Enterococcus faecalis (GC 4553) (Enterococcus sp.) | MIC Enterococcus faecium (GC 2243) (Enterococcus sp.) | MIC Enterococcus faecium (GC 2243) (Enterococcus sp.; [3]) | MIC Enterococcus faecalis (GC 4553) (Enterococcus sp.; [7]) | MIC Staphylococcus aureus (GC 4541) (Staphylococcus sp.) | MIC Staphylococcus aureus (GC 4545) (Staphylococcus sp.) | MIC Coagulase Negative Staphylococcus (GC 4548) (Staphylococcus sp.) | MIC Coagulase Negative Staphylococcus (GC 4549) (Staphylococcus sp.) | MIC Coagulase Negative Staphylococcus (GC 6257) (Staphylococcus sp.) | MIC Streptococcus pneumoniae (ATCC 6301) (Streptococcus sp.) | MIC Streptococcus pneumoniae (GC 1894) (Streptococcus sp.) | MIC Streptococcus pneumoniae (GC 4565) (Streptococcus sp.) | MIC Streptococcus pneumoniae (ATCC 6301) (Streptococcus sp.; [13]) | MIC Streptococcus pneumoniae (GC 1894) (Streptococcus sp.; [14]) | MIC Streptococcus pneumoniae (GC 4565) (Streptococcus sp.; [17])
8 µg/mL: MIC Escherichia coli (GC 4560) (Escherichia coli) | MIC Enterococcus faecium (GC 4557) (Enterococcus sp.) | MIC Enterococcus faecium (GC 4557) (Enterococcus sp.; [10])
32 µg/mL: MIC Enterococcus avium (GC 4558) (Enterococcus sp.) | MIC Enterococcus avium (GC 4558) (Enterococcus sp.; [11]) | MIC Staphylococcus haemolyticus (GC 4546) (Staphylococcus sp.) | MIC Coagulase Negative Staphylococcus (GC 4547) (Staphylococcus sp.) | MIC Streptococcus pyogenes (GC 4563) (Streptococcus sp.) | MIC Streptococcus pyogenes (GC 4563) (Streptococcus sp.; [15])
